Results as given in ChEMBL document CHEMBL1201862, “PubChem BioAssay data set” (2004).
Active and inactive are the calls of the source.

Columns and labels:
[1] = C. albicans growth with fluconazole, confirmation, fluorescence, retest (AID 2467); type: functional, cell-based
[2] = biological target: Protein kinase C gamma type (Homo sapiens, UniProt P05129); type: functional
[3] = biological target: Calcium/calmodulin-dependent protein kinase kinase 2 (Homo sapiens, UniProt Q96RR4); experiment: Navigating the Kinome. Panel member name: CAMKK2; type: functional
[4] = biological target: Tyrosine-protein kinase SYK (Homo sapiens, UniProt P43405); type: functional
[5] = biological target: Mitogen-activated protein kinase kinase kinase kinase 2 (Homo sapiens, UniProt Q12851); type: functional;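 also: measured as one member of a kinome-wide kinase panel, with MAP4K2 as the panel entry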
[6] = biological target: Insulin receptor (Homo sapiens, UniProt P06213); type: functional;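 also: insulin receptor kinase tested as one member of a kinome-wide kinase panel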
[7] = biological target: Serine/threonine-protein kinase PLK1 (Homo sapiens, UniProt P53350); type: functional;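 also: PLK1 measured as one member of a kinome-wide profiling panel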
[8] = biological target: Proto-oncogene tyrosine-protein kinase ROS (Homo sapiens, UniProt P08922); type: functional;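 also: ROS1 tested as one member of a kinome-wide kinase panel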
[9] = biological target: Macrophage colony-stimulating factor 1 receptor (Homo sapiens, UniProt P07333); type: functional;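 also: value comes from the Navigating the Kinome screening panel, CSF1R member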
[10] = biological target: Testis-specific serine/threonine-protein kinase 2 (Homo sapiens, UniProt Q96PF2); type: functional;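 also: part of the Navigating the Kinome panel, target entry STK22B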
[11] = biological target: Protein-tyrosine kinase 6 (Homo sapiens, UniProt Q13882); type: functional
[12] = biological target: Serine/threonine-protein kinase Nek4 (Homo sapiens, UniProt P51957); type: functional
[13] = biological target: Non-receptor tyrosine-protein kinase TYK2 (Homo sapiens, UniProt P29597); type: functional
[14] = biological target: MAP kinase-interacting serine/threonine-protein kinase 2 (Homo sapiens, UniProt Q9HBH9); type: functional
[15] = biological target: Casein kinase I isoform gamma-1 (Homo sapiens, UniProt Q9HCP0); type: functional;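 also: measured as the CSNK1G1 member of a kinome profiling panel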
[16] = biological target: SRSF protein kinase 1 (Homo sapiens, UniProt Q96SB4); type: functional;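 also: measured as one member of a kinome-wide kinase profiling panel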
[17] = biological target: Leucine-rich repeat serine/threonine-protein kinase 2 (Homo sapiens, UniProt Q5S007); type: functional;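 also: value from a broad kinome-wide panel profiling study in which LRRK2 was one of the kinases tested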
[18] = biological target: Dual specificity protein kinase CLK2 (Homo sapiens, UniProt P49760); type: functional
[19] = biological target: Serine/threonine-protein kinase PLK3 (Homo sapiens, UniProt Q9H4B4); type: functional
[20] = biological target: Ribosomal protein S6 kinase alpha-5 (Homo sapiens, UniProt O75582); type: functional
[21] = biological target: Homeodomain-interacting protein kinase 2 (Homo sapiens, UniProt Q9H2X6); type: functional;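 also: measured within a kinome-wide kinase profiling panel, HIPK2 being one panel member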
[22] = biological target: Mast/stem cell growth factor receptor Kit (Homo sapiens, UniProt P10721); type: functional;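 also: KIT entry within a kinase panel assay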
[23] = biological target: Tyrosine-protein kinase FRK (Homo sapiens, UniProt P42685); type: functional;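 also: FRK tested as one member of a kinome panel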
[24] = biological target: Dual specificity mitogen-activated protein kinase kinase 2 (Homo sapiens, UniProt P36507); experiment: Navigating the Kinome. Panel member name: MAP2K2; type: functional
[25] = biological target: RAC-alpha serine/threonine-protein kinase (Homo sapiens, UniProt P31749); type: functional;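 also: AKT1 affinity measured as one member of a kinome-wide kinase profiling panel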
[26] = biological target: MAP kinase-activated protein kinase 3 (Homo sapiens, UniProt Q16644); type: functional;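 also: value comes from a kinome-wide profiling panel in which MAPKAPK3 is one of the panel members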
[27] = biological target: Tyrosine-protein kinase Blk (Homo sapiens, UniProt P51451); type: functional;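 also: obtained as one member of a kinome-wide kinase assay panel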
[28] = biological target: Tyrosine-protein kinase ABL1 (Homo sapiens, UniProt P00519); type: functional
[29] = biological target: MAP kinase-activated protein kinase 5 (Homo sapiens, UniProt Q8IW41); type: functional;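 also: measured as one member of a kinome panel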
[30] = biological target: Tyrosine-protein kinase receptor TYRO3 (Homo sapiens, UniProt Q06418); type: functional;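 also: TYRO3 value obtained as one member of a kinome-wide profiling panel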
[31] = biological target: Phosphorylase b kinase gamma catalytic chain, liver/testis isoform (Homo sapiens, UniProt P15735); type: functional;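 also: PHKG2 measured as one member of a kinome-wide kinase panel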
[32] = biological target: Glycogen synthase kinase-3 beta (Homo sapiens, UniProt P49841); type: functional;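 also: value comes from a broad kinome profiling panel, with GSK3B as the panel member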
[33] = biological target: Receptor tyrosine-protein kinase erbB-2 (Homo sapiens, UniProt P04626); experiment: Navigating the Kinome. Panel member name: ERBB2; type: functional
[34] = biological target: Insulin-like growth factor 1 receptor (Homo sapiens, UniProt P08069); experiment: Navigating the Kinome. Panel member name: IGF1R; type: functional
[35] = biological target: Casein kinase II subunit alpha (Homo sapiens, UniProt P68400); type: functional
[36] = biological target: Calcium/calmodulin-dependent protein kinase type II subunit alpha (Homo sapiens, UniProt Q9UQM7); experiment: Navigating the Kinome. Panel member name: CAMK2A; type: functional
[37] = biological target: Dual specificity mitogen-activated protein kinase kinase 1 (Homo sapiens, UniProt Q02750); experiment: Navigating the Kinome. Panel member name: MAP2K1; type: functional
[38] = biological target: Dual specificity tyrosine-phosphorylation-regulated kinase 1A (Homo sapiens, UniProt Q13627); type: functional;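 also: measured against DYRK1A as one member of a broad kinome profiling panel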

Sequence of RAC-alpha serine/threonine-protein kinase (P31749 whole entry): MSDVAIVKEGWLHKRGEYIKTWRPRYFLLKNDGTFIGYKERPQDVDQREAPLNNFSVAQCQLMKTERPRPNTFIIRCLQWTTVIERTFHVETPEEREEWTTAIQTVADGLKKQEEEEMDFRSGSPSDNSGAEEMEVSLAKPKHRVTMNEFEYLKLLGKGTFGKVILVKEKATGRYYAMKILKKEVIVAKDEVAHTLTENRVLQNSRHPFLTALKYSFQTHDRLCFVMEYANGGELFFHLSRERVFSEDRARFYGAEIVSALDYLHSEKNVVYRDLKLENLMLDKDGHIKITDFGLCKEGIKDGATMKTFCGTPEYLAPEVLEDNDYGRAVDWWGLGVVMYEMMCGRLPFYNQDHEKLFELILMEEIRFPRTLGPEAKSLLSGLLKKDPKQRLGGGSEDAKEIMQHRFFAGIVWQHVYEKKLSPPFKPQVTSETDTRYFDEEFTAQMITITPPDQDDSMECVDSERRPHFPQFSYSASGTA
Sequence of Casein kinase II subunit alpha (P68400 whole entry): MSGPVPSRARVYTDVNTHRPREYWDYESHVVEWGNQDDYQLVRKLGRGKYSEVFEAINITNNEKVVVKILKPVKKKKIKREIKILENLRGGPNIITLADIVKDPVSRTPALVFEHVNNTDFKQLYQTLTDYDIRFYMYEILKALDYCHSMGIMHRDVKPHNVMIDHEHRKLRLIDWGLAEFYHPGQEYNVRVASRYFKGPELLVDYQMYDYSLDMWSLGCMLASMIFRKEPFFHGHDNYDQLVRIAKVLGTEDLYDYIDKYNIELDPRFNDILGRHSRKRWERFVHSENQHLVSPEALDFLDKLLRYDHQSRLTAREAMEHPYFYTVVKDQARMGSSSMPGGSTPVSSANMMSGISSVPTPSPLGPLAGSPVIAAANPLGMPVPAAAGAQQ
Sequence of Serine/threonine-protein kinase Nek4 (P51957 whole entry): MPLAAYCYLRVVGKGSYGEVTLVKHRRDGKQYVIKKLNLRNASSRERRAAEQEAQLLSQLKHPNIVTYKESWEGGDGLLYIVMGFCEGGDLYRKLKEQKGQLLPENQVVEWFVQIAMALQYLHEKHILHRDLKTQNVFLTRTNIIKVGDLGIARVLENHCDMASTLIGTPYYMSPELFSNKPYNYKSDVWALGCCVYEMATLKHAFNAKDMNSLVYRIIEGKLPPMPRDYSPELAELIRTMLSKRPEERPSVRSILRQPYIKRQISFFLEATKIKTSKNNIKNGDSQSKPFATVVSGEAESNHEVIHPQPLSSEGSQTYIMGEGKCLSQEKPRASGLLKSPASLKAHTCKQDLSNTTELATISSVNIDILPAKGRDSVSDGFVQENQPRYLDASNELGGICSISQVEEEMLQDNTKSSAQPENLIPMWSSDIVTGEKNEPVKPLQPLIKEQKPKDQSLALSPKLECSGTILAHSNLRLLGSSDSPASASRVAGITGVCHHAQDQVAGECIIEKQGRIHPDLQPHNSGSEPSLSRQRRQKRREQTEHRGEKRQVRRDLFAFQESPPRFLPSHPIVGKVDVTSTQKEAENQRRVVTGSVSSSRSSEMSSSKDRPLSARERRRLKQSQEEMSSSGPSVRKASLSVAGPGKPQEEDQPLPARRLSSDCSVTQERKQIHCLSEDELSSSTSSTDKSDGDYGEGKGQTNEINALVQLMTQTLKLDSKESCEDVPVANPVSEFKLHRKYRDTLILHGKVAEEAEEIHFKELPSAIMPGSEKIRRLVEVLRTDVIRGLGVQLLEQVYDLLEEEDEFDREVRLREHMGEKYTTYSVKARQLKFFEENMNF
Sequence of SRSF protein kinase 1 (Q96SB4 whole entry): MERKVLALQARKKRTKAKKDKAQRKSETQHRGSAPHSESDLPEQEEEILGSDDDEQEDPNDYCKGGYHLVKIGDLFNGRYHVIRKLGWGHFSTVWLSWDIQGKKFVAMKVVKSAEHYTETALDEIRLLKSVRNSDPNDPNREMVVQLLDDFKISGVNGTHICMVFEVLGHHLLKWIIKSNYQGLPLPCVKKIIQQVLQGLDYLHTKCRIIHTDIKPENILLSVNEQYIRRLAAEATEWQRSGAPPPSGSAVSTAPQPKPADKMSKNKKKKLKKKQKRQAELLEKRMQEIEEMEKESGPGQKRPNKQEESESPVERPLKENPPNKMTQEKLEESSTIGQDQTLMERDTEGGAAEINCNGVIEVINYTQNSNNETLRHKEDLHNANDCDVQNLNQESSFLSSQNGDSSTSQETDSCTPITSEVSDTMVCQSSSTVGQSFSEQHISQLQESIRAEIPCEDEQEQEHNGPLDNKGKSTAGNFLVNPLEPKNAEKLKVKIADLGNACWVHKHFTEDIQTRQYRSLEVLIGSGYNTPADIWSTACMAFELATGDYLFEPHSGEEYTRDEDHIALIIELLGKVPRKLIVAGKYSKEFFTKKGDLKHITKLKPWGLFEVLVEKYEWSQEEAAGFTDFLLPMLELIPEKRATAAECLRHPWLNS
Sequence of MAP kinase-interacting serine/threonine-protein kinase 2 (Q9HBH9 whole entry, canonical isoform): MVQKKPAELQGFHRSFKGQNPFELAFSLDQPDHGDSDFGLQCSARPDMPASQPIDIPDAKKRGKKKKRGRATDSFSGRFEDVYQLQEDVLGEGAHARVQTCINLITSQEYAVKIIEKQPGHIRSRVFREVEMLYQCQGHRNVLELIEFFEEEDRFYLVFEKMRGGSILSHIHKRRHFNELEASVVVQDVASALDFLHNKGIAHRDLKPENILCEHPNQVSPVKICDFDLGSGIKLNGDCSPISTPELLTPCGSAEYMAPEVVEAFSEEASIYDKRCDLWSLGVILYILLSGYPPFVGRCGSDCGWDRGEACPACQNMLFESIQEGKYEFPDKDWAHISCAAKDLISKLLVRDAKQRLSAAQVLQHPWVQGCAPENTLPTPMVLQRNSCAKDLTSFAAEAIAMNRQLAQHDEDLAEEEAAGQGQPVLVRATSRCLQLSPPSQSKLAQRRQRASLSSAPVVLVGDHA
Sequence of Receptor tyrosine-protein kinase erbB-2 (P04626 whole entry): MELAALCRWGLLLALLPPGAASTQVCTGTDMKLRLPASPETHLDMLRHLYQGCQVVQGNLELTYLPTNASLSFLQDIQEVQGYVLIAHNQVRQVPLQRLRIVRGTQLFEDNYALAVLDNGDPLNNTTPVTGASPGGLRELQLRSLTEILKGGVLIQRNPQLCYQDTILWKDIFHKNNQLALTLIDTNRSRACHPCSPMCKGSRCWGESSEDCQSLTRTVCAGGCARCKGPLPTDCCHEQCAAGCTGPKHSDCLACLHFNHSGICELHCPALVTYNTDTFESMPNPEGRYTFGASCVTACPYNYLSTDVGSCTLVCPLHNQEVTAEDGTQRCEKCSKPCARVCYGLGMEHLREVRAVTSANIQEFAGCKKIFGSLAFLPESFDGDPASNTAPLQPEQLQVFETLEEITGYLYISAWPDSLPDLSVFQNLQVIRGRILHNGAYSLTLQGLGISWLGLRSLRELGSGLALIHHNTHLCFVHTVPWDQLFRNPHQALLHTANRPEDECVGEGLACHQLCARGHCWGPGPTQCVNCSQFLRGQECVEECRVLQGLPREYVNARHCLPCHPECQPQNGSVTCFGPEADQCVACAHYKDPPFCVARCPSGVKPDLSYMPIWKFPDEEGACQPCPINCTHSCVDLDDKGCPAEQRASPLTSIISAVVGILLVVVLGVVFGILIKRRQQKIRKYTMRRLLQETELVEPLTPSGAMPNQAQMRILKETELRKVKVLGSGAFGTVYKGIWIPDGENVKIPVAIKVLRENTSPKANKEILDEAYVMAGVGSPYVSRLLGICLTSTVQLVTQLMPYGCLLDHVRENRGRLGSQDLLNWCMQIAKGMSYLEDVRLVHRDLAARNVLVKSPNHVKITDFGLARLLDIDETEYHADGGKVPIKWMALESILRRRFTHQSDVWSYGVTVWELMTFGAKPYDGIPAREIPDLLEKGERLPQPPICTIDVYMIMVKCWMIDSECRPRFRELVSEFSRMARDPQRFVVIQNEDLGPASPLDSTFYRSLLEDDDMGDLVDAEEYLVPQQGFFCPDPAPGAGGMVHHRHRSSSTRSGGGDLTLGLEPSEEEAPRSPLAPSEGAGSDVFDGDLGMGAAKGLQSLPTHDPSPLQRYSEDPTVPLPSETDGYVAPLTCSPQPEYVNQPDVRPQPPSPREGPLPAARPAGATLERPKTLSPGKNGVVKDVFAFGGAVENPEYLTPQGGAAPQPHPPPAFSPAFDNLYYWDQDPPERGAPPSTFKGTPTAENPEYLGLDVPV
Sequence of Glycogen synthase kinase-3 beta (P49841 whole entry): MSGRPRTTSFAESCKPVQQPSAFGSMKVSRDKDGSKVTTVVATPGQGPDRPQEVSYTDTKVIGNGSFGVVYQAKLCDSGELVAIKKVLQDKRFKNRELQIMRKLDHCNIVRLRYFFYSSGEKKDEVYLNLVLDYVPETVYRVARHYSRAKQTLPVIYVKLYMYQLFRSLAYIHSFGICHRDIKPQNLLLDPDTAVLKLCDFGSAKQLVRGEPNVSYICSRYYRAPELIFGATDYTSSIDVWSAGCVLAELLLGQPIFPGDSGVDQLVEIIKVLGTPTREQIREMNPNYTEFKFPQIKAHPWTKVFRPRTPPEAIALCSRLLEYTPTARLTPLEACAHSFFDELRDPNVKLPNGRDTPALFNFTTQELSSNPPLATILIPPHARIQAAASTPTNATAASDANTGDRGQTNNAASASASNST
Sequence of Dual specificity mitogen-activated protein kinase kinase 1 (Q02750 whole entry): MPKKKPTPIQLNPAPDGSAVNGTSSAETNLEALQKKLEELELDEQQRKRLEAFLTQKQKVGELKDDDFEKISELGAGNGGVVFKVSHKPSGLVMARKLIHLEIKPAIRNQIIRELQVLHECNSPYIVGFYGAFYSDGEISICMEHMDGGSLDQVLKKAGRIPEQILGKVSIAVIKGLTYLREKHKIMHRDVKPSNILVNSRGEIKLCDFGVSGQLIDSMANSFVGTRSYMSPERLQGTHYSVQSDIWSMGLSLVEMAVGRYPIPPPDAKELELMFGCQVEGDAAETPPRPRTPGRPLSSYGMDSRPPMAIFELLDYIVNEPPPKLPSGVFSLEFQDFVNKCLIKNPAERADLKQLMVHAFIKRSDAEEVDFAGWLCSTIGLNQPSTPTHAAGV

In the case of CCCn1nc([N+](=O)[O-])c(C(C#N)c2nc3ccccc3s2)c(Cl)c1=O (stereo not drawn), the EC50 [1] was 0.661 µM (active).
With NCCCn1cc(-c2cc(-c3cc4ccccc4s3)c3[nH]ncc3c2)c2nc(N)ncc21 the Ki [2] was 0.2 µM (active), the Ki [3] was > 2.51 µM (inactive) and the Ki [4] was 0.1 µM (active). For the same compound, the Ki [5] was > 1.58 µM (inactive), the Ki [6] was > 5.01 µM (inactive) and the Ki [7] was > 7.94 µM (inactive). The Ki [8] was 0.2 µM (active), the Ki [9] was > 2.51 µM (inactive) and the Ki [10] was 1.58 µM (active). The Ki [11] was > 2.51 µM (inactive), the Ki [12] was 0.2 µM (active) and the Ki [13] was > 2 µM (inactive). The Ki [14] was 0.0251 µM (active), the Ki [15] was 2.51 µM (active) and the Ki [16] was 2 µM (active). The Ki [17] was 0.251 µM (active), the Ki [18] was > 2.51 µM (inactive) and the Ki [19] was > 7.94 µM (inactive). For the same compound, the Ki [20] was 0.631 µM (active), the Ki [21] was 0.631 µM (active) and the Ki [22] was > 3.16 µM (inactive). For the same compound, the Ki [23] was > 2.51 µM (inactive), the Ki [24] was > 3.98 µM (inactive) and the Ki [25] was 0.251 µM (active). For the same compound, the Ki [26] was 1.58 µM (active), the Ki [27] was > 1.58 µM (inactive) and the Ki [28] was > 2.51 µM (inactive). The Ki [29] was 0.2 µM (active), the Ki [30] was > 2.51 µM (inactive) and the Ki [31] was 0.126 µM (active). For the same compound, the Ki [32] was 0.316 µM (active), the Ki [33] was > 1.58 µM (inactive) and the Ki [34] was > 2 µM (inactive). For the same compound, the Ki [35] was 0.1 µM (active), the Ki [36] was > 5.01 µM (inactive) and the Ki [37] was > 3.16 µM (inactive). The Ki [38] was 1 µM (active).
